Holding throughout (assay): In-cell proteome-wide competitive ABPP, HEK293: other DUBs and proteins
The target in experiment [1] is T1, DUBs and other proteins in HEK293 cells (Homo sapiens, UniProt Q9Y4E8).
T1 sequence (Q9Y4E8 1-981): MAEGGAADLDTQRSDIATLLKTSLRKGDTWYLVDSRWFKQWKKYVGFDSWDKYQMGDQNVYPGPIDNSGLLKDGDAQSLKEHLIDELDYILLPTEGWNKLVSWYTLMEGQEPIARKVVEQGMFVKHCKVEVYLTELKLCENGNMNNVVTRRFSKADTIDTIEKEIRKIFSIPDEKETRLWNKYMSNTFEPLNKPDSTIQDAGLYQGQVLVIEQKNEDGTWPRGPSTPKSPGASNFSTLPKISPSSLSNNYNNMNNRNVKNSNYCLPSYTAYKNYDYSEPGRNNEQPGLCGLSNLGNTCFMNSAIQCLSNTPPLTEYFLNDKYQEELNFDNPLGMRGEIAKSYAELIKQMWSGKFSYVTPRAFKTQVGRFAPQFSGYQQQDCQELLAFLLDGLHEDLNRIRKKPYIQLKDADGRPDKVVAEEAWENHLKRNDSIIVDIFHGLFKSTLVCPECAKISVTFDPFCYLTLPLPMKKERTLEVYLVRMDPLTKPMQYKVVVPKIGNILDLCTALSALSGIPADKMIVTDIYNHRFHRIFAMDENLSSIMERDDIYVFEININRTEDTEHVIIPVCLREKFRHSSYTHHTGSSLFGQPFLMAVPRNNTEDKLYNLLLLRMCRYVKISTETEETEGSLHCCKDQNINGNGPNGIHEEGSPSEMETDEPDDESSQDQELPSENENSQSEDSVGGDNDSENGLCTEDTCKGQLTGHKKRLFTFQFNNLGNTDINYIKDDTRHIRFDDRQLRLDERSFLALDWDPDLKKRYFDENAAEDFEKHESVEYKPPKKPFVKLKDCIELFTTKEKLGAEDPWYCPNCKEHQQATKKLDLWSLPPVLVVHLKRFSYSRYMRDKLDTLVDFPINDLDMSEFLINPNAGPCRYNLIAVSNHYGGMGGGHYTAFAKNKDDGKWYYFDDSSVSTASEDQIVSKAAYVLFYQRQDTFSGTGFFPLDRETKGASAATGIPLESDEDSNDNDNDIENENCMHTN
Conditions: replicates A-C; for Log2 reporter intensity values: USP15: DMSO substract (FC); for Log2 reporter intensity values: USP15, DMSO subtracted.

For experiment [2], the target named is DUBs and other proteins in HEK293 cells (Homo sapiens, UniProt Q92905). Conditions: for Log2 reporter intensity values, COPS5: TMT replicates; for Log2 reporter intensity values: COPS5: DMSO substract (FC); for Log2 reporter intensity values: COPS5 / Log2 reporter intensity values: replicates A-C; for Log2 t-test Difference / Log2 reporter intensity values: COPS5.
Sequence of DUBs and other proteins in HEK293 cells (Homo sapiens, UniProt Q92905) (Q92905 whole entry): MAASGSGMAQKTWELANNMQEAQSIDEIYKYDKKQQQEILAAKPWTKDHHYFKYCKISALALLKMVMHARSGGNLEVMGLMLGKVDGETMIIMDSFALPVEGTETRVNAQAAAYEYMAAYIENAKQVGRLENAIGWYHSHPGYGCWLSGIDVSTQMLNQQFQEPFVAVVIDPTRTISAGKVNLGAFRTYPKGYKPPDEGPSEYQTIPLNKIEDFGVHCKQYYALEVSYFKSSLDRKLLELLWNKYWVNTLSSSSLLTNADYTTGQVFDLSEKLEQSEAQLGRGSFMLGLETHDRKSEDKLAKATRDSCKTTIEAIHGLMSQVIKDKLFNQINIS

In experiment [3] the target is T2, DUBs and other proteins in HEK293 cells (Homo sapiens, UniProt P40818).
T2 sequence (P40818 1-1118): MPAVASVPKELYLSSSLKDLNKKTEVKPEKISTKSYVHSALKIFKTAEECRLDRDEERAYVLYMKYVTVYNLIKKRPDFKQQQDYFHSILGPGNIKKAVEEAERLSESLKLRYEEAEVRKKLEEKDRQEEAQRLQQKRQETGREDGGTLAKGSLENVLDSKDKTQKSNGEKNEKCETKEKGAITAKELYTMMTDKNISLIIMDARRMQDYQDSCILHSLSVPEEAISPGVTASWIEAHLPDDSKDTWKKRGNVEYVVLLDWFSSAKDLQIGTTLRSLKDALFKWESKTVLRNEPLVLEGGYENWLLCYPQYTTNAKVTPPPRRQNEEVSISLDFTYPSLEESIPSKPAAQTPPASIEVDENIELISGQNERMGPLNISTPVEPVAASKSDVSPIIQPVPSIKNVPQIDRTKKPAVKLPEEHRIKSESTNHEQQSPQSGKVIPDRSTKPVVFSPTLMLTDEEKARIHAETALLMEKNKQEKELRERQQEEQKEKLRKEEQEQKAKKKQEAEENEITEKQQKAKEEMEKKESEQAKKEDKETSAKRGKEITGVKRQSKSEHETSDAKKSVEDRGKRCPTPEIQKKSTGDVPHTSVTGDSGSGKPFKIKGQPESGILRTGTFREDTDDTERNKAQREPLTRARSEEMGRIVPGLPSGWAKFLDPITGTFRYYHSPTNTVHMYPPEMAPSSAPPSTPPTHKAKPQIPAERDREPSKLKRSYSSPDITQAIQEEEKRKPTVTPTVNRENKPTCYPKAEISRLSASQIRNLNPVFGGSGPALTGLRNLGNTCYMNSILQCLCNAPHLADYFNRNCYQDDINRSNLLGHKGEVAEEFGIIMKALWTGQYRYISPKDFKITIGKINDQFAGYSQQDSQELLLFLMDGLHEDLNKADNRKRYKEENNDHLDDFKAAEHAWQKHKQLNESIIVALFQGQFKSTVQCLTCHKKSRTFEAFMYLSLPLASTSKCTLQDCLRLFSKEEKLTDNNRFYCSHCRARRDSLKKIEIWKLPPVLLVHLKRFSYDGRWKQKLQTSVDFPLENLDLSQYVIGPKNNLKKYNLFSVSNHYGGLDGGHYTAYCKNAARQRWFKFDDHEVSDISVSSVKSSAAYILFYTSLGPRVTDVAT
The settings on record: for Log2 reporter intensity values: USP8: competition with ABP 2, DMSO substract (FC), replicates A-B; for Log2 reporter intensity values: USP8, DMSO subtracted.

Experiment [4] addresses DUBs and other proteins in HEK293 cells (Homo sapiens, UniProt Q9Y5T5). Conditions: replicates A-C; for Log2 reporter intensity values: USP16: competition with ABP 2, DMSO substract (FC); for Log2 reporter intensity values: USP16, DMSO subtracted.
The mark [5] stands for this setting: 1 at 1 μM, competition with ABP 2.
Setting [6] is: 1 at 4 μM, competition with ABP 2.

SMILES strings stand for the structures. Where “and” joins values, the source holds several entries; their conditions need not be identical. Identical values can stand only once.

Experimental findings from publication PMC7366380, “Discovery of a Potent and Selective Covalent Inhibitor and Activity-Based Probe for the Deubiquitylating Enzyme UCHL1, with Antifibrotic Activity” (Journal of the American Chemical Society, 2020) are described below.

Sequence of DUBs and other proteins in HEK293 cells (Homo sapiens, UniProt Q9Y5T5) (Q9Y5T5 whole entry): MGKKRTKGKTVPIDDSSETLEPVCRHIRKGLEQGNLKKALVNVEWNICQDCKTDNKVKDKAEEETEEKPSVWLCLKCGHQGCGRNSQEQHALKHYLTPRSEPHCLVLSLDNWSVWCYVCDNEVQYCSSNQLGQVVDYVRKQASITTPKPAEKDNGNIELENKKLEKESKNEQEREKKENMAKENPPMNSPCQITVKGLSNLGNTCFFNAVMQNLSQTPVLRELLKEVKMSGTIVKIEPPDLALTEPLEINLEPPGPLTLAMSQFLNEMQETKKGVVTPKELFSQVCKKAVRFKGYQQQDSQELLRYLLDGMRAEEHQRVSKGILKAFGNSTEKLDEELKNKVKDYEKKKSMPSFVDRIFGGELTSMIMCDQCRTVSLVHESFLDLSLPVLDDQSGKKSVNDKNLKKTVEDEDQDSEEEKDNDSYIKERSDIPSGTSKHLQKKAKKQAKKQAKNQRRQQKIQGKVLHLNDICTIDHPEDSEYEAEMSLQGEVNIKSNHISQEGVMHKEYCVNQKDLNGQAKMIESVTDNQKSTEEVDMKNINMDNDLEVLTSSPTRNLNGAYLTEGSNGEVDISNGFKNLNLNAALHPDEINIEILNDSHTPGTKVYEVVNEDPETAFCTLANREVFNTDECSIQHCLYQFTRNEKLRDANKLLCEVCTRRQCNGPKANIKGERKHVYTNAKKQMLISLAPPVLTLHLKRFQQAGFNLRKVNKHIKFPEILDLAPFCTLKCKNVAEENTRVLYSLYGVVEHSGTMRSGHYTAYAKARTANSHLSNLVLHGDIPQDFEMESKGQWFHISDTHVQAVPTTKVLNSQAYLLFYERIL

Regarding `N#CN1CCC[C@H]1C(=O)N1CCc2c(-c3c[nH]c4ncccc34)cccc21` [Compound 1], the “Log2 reporter intensity values: USP15” value in experiment [1] (setting [5]) is 0.9886 and 1.029 and 1.017; in experiment [1] (setting [6]), 1.093 and 1.191 and 1.05. Besides, the “Log2 reporter intensity values” in experiment [1] (1_1 μM) is -0.01164 and 0.02918 and 0.01631; in experiment [1] (1_4 μM), 0.09302 and 0.1906 and 0.04957; in experiment [1] (1 at 1 μM), -0.0165 and 0.04186 and 0.02371; in experiment [1] (1 at 4 μM), 0.1287 and 0.252 and 0.07016; in experiment [2] (1_1 μM, DMSO subtracted), 0.03118 and 0.01753 and 0.09661; in experiment [2] (1_4 μM, DMSO subtracted), 0.05896 and 0.03137 and 0.1323. For the same compound, the “Log2 reporter intensity values” is 0.04441 and 0.02519 and 0.1332 in experiment [2] (1 at 1 μM, DMSO subtracted); 0.08277 and 0.04467 and 0.1793 in experiment [2] (1 at 4 μM, DMSO subtracted); -0.01738 and -0.02201 in experiment [3] (1_1 μM, replicates A-B (C NaN)); 0.09749 and 0.0991 in experiment [3] (1_4 μM, replicates A-B (C NaN)); -0.0217 and -0.0285 in experiment [3] (1 at 1 μM, replicates A-C); 0.1374 and 0.1395 in experiment [3] (1 at 4 μM, replicates A-C). For the same compound, the “Log2 reporter intensity values” in experiment [4] (1_1 μM) was 0.01937 and 0.04439 and 0.01154; in experiment [4] (1_4 μM), 0.06901 and 0.2175 and 0.1444; in experiment [4] (1 at 1 μM) it was 0.03077 and 0.06568 and 0.01967; in experiment [4] (1 at 4 μM), 0.09923 and 0.2865 and 0.1974. The “Log2 reporter intensity values, COPS5” value in experiment [2] (1 μM 1 (60 min) + 20 nM ABP 2 (10 min), All values) is -0.01371 and -0.03292 and 0.07504; in experiment [2] (1 μM 1 (60 min) + 20 nM ABP 2 (10 min), DMSO subtracted), 0.04441 and 0.02519 and 0.1332; in experiment [2] (4 μM 1 (60 min) + 20 nM ABP 2 (10 min), All values), 0.02465 and -0.01344 and 0.1212; in experiment [2] (4 μM 1 (60 min) + 20 nM ABP 2 (10 min), DMSO subtracted), 0.08277 and 0.04467 and 0.1793. Further, the “Log2 reporter intensity values: COPS5” value in experiment [2] (setting [5]) was 1.031 and 1.018 and 1.097; in experiment [2] (setting [6]) it was 1.059 and 1.031 and 1.132. The “Log2 t-test Difference” value in experiment [2] (1 - 1 μM) is given as -0.09474; in experiment [2] (1 - 4 μM) it was -0.06006. Also, the “Log2 reporter intensity values: USP8” value in experiment [3] (1 at 1 μM) was 0.9851 and 0.9804; in experiment [3] (1 at 4 μM), 1.1 and 1.102. Besides, the “Log2 reporter intensity values: USP16” value in experiment [4] (1 at 1 μM) was 1.022 and 1.047 and 1.014; in experiment [4] (1 at 4 μM), 1.071 and 1.22 and 1.147.

Regarding `C#Cc1cnc2[nH]cc(-c3cccc4c3CCN4C(=O)[C@@H]3CCCN3C#N)c2c1` [Compound 2], the “Log2 reporter intensity values: USP15” value in experiment [1] (20 nM ABP 2 alone) is 1.045 and 1.025 and 1.159. Further, the “Log2 reporter intensity values” in experiment [1] (20 nM ABP 2) is 0.06335 and 0.03549 and 0.2127 and 0.04463 and 0.02465 and 0.1586; in experiment [2] (20 nM ABP 2, DMSO subtracted) it was 0.1518 and 0.03179 and 0.3034 and 0.1109 and 0.0222 and 0.2339. Further, the “Log2 reporter intensity values, COPS5” value in experiment [2] (20 nM ABP 2 (10 min), no competitor, All values) is 0.09368 and -0.02632 and 0.2453; in experiment [2] (20 nM ABP 2 (10 min), no competitor, DMSO subtracted), 0.1518 and 0.03179 and 0.3034. The “Log2 reporter intensity values: COPS5” value in experiment [2] (20 nM ABP 2 alone) was 1.111 and 1.022 and 1.234. Besides, in experiment [2] (ABP 2 - 20 nM), the “Log2 t-test Difference” value was 0.1623.
